Measured values as given in paper PMC12091851, “Replacing a Cereblon Ligand by a DDB1 and CUL4 Associated Factor 11 (DCAF11) Recruiter Converts a Selective Histone Deacetylase 6 PROTAC into a Pan‐Degrader” (Chemmedchem, 2025).

Target: T1, HDAC6 (Homo sapiens, UniProt Q9UBN7)
T1 sequence (Q9UBN7 1-1215): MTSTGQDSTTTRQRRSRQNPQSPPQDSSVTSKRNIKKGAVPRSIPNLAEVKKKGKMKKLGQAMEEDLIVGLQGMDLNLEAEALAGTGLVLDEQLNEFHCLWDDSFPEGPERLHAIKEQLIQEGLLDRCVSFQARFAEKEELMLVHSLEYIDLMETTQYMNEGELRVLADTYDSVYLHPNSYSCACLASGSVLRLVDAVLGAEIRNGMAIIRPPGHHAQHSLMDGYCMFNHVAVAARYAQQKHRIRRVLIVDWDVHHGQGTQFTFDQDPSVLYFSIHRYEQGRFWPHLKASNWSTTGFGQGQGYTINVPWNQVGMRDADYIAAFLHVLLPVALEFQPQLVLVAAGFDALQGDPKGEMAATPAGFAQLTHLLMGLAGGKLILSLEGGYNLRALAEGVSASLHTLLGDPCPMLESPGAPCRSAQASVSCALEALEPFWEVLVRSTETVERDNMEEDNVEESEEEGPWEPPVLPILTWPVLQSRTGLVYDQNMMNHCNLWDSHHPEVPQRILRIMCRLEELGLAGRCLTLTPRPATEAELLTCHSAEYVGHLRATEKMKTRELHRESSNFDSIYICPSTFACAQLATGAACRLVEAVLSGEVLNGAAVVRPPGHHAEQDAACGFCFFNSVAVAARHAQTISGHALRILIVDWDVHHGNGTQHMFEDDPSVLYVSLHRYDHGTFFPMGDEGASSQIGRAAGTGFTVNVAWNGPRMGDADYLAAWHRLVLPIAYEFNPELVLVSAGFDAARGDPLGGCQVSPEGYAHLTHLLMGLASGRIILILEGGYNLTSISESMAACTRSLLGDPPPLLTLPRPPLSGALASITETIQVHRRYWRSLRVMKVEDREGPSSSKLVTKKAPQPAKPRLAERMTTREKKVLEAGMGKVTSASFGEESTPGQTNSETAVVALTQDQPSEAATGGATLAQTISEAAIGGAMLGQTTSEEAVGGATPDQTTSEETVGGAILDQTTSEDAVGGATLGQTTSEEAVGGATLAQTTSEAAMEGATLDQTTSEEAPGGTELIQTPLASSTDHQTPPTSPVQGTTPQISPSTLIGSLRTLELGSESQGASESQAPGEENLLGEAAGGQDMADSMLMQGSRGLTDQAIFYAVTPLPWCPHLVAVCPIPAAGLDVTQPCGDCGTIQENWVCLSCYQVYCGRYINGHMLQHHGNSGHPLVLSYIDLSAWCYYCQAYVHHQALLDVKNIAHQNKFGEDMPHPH
Assay: Immunoblot HDAC6 degradation in MM.1S cell lysates
Type: cell-based
Set-up: endogenous in cells; host or cells: MM.1S
Conditions: MM1.S, MM.1S cells, 24 h, read-out: maximal degradation (Dmax) HDAC6
Procedure: Figure 6 Examination of HDAC isoform degradation. MM.1S cells were treated with the indicated compounds (10 μM) or vehicle (DMSO) for 24 h. HDAC1, 2, 4, and 6 levels were analyzed by immunoblotting. (A) Representative images from a total of n=3 biological replicates.
2.5. Aqueous Stability Assay
For stability testing in aqueous solution, a 10-fold concentrated DMSO solution of the respective compounds was diluted in DPBS to generate a 10 µM concentration (final DMSO content of 10%).
Samples of the aqueous solutions were taken after 0, 24, 48, and 72 h at room temperature and the amounts of the parental compound and potential fragments were monitored by HPLC gradient A (see 3.1 General Information). The peak area of the 0 h sample was used for normalization. All compounds were tested in duplicates and GraphPad Prim was used for evaluation and data visualization.
The cell lysis was performed as descripted in 3.2. Simple Western Immunoassay. Samples were denatured by Laemmli 2× Concentrate (Catalog# S3401-10VL, Sigma-Aldrich) for 5 min at 95 °C, and […]
Bio-Rad, Hercules, CA, USA). […]
6.1 (Bio-Rad) for quantification. […]
In vitro inhibitory activities against HDAC1, 2 , and 6 were measured using a previously published protocol.[3] In vitro inhibitory activities against HDAC4 were measured using a previously published protocol with slight modifications. […]

## O=C(CCCCCCNC(=O)c1ccc(NC(=O)CCCCCCCCCCCN(C(=O)CCl)C(C(=O)NCc2ccccc2)c2ccc(Cl)c(Cl)c2)cc1)NO (centres unmarked) [Compound 1j]
  Dmax at 10 µM: 71 to 76%

## O=C(CCCCCCNC(=O)c1ccc(N(C(=O)CCl)C(C(=O)NCc2ccccc2)c2ccc(Cl)c(Cl)c2)cc1)NO (centres unmarked) [Compound 2]
  Dmax at 10 µM: 26%
